Test results: PubChem BioAssay (NCI)
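Protocol summary: plate cells (96-well), add compound at 5 concentrations, incubate 48 h, interpolate endpoints linearly. GI50 = concentration required for 50% inhibition of growth. TGI: total growth inhibition.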

How the values were obtained:
Assay in all cases: NCI-60 cell line screen, 48 h
A498 renal = tested on: A498 renal
ACHN renal = tested on: ACHN renal
EKVX NSCLC = tested on: EKVX NSCLC
HCT-116 colon = tested on: HCT-116 colon
HOP-92 NSCLC = tested on: HOP-92 NSCLC
KM12 colon = tested on: KM12 colon
NCI-H460 lung = tested on: NCI-H460 lung
RXF 393 renal = tested on: RXF 393 renal
TK-10 renal = tested on: TK-10 renal
U251 CNS = tested on: U251 CNS

Compound	GI50 (A498 renal) [µM]	TGI (A498 renal) [µM]	GI50 (ACHN renal) [µM]	TGI (ACHN renal) [µM]	GI50 (EKVX NSCLC) [µM]	TGI (EKVX NSCLC) [µM]	GI50 (HCT-116 colon) [µM]	TGI (HCT-116 colon) [µM]	GI50 (HOP-92 NSCLC) [µM]	TGI (HOP-92 NSCLC) [µM]	GI50 (KM12 colon) [µM]	TGI (KM12 colon) [µM]	GI50 (NCI-H460 lung) [µM]	TGI (NCI-H460 lung) [µM]	GI50 (RXF 393 renal) [µM]	TGI (RXF 393 renal) [µM]	GI50 (TK-10 renal) [µM]	TGI (TK-10 renal) [µM]	GI50 (U251 CNS) [µM]	TGI (U251 CNS) [µM]
CN1CCN(C(=O)[C@@]2(C)CC[C@]3(C)CC[C@]4(C)C(=CC[C@@H]5[C@@]6(C)CCC(=O)NC(C)(C)[C@@H]6CC[C@]54C)[C@@H]3C2)CC1	2.68	12.1	1.99	4.11	2.74	12.8	1.13	2.45	1.05	3.89	1.56	3.13	1.69	3.3	1.06	2.52	1.8	3.42	1.38	2.82
COC(=O)c1ccc2nc(-c3cc4ccccc4n3C)n(CCCCOc3cc4c(cc3OC)C(=O)N3CCC[C@H]3C=N4)c2c1	0.374	1.73	1.17	6.75	2.41	6.46	0.528	2.61	0.347	2.77	0.255	0.787	0.561	1.55	0.687	2.27	0.43	3.29	0.632	2.08
CNS(=O)(=O)OCC1OC(n2cnc3cncnc32)C(O)C1O (stereo not given)	> 100	> 100	> 100	> 100	> 100	> 100	> 100	> 100	> 100	> 100	> 100	> 100	> 100	> 100	> 100	> 100	> 100	> 100	> 100	> 100
Cc1cc(Cl)nc2ccc(Cc3ccc4nc(Cl)cc(C)c4c3)cc12		69.1		70.8		> 100		> 100		> 100		> 100		> 100		27.6		59.7		79.3
O=C(NC(=Nc1ccccc1)SCSC(=Nc1ccccc1)NC(=O)c1ccco1)c1ccco1		98.2		> 100		> 100		> 100		53.7		> 100		> 100		55		70.4		> 100
CN1CC=C(c2cc(NC(=O)Nc3ccc(Oc4ccnc(NC(=O)C5CC5)c4)c(F)c3)cc(C(F)(F)F)c2)CC1	2.05	3.9	0.968	2.67	0.359	1.91	0.167	1.68	1.55	3.58	0.0332	0.68	0.194	0.66	0.172	0.411	1.62	3.91	0.208	0.824
O=C(CCC(=O)Nc1ccc(Cl)c(Cl)c1)CC(=O)c1ccc2ccccc2c1		> 100		> 100		> 100		> 100		> 100		> 100		> 100		> 100		> 100		> 100
COc1ccc(Nc2nc3cc(C(F)(F)F)ccc3nc2-c2ccccc2)cc1OC		> 100		> 100		71.2		> 100		9.1		> 100		> 100		35.9		43		> 100
